Measured values published in patent publication US8268842B2, “Fused ring 4-oxopyrimidine derivative” (MSD K.K., priority 2004, dated 2012).
Read-outs that look alike come from different tables or passages of the source.

Experiments:
[1] = target: T1, human histamine H3 receptor (Homo sapiens, UniProt Q9Y5N1); assay: Histamine analog coupling inhibition test; assay type: binding
T1 construct: expressed in transfected cells; host or cells: HEK293 and CHO-K1
Source text: A cDNA sequence [International Patent Application WO00/3916 Specification No. 4] which encodes human histamine H3 receptor was cloned using the expression vectors pCR2.1, pEF1x (product of Invitrogen), and pCI-neo (product of Promega Inc.). The expression vector obtained was transfected to the host cells, HEK293 and CHO-K1 (American type culture collection), using the cationic lipid method [Proceedings of the National Academy of Sciences of the United States of America, Vol. 84, p. 7413 (1987), and histamine H3 receptor expression cells were thus obtained.
A film preparation made from the cells which represented the histamine H3 receptor, the test compound (the compound of Example 1) and 20,000 cpm of [3H]N-α-methylhistamine (product of NEN) were incubated in an assay buffer solution (50 mM Tris buffer solution, pH 7.4) at 25° C. for 2 hours, and filtered on a glass filter GF/C. After washing by 50 mM Tris buffer solution, pH7.4, the radioactivity on the glass filter was found. Non-specific linkages were measured in the presence of 10 microM thioperamide (product of SIGAM), and the 50% inhibition concentration (IC50 value) of the test compound with respect to specific N-α-methylhistamine linkages was found (Molecular Pharmacology, Vol. 55, p. 1101 (1999)).

[2] = target: T2, histamine H3 receptor (Rattus norvegicus, UniProt Q9QYN8); assay: Antagonism test of drinking behavior induced by R-α-methylhistamine, a histamine H3 receptor selective agonist; assay type: in vivo; conditions: male SD rat, 10 mg/kg oral 2 hours before R-α-methylhistamine, measured 1 hour after
T2 construct: from tissue; host or cells: living male SD rat (brain, third ventricle agonist administration)
Experimental: Under ketamine/xylazine anaesthesia (74 mg/kg and 11 mg/kg intraperitoneal single-dose administration), a chronic guide cannula (26 gauge, length 11 mm) was inserted in the ventriculus tertius of a male SD rat (7-10 weeks old, 200-300 g) using a brain stereotaxis apparatus, and fixed by dental resin. The position of the tip of the guide cannula was 2.2 mm back from the bregma, and at a depth of 8 mm from the skull surface on the median line. After about 1 week convalescence, R-α-methylhistamine (0.3 μg/1 μL/head, 30% propylene glycol solution) was administered to the ventriculus tertius. The test compound (the compound of Example 1) suspended in 0.5% methylcellulose aqueous solution was administered orally 2 hours before the R-α-methylhistamine administration, and the drinking water amount was measured 1 hour after R-α-methylhistamine administration.

[3] = Brain/cerebrospinal fluid activity test; assay type: in vivo, rat; conditions: SD type male rats, 2 hours after oral administration (10 mg/kg); for concentration at 2 h: rat
Experimental: The test compound (the compound of Example 1) was administered orally or intravenously to SD type male rats (7-10 weeks old, 200-400 g), and exsanguination was performed from the abdominal aorta under ether anesthesia using a heparin treatment syringe at a predetermined time. The skin at the back of the head was cut open, pierced with a 30G dental needle between the cervical vertebrae, and inserted into the subarachnoid space. 50-100 μL of cerebrospinal fluid was extracted by a 1 mL syringe via a tube connected to the 30G needle, and the brain was extracted. A blood sample was centrifuged (4° C., 6000 rpm, 10 minutes), and three times the amount of ethanol (containing an internal reference) was added to the plasma and stirred. 2 mL of water was added to a brain sample, homogenized, a part was removed, and three times the amount of ethanol (containing an internal reference) was added and stirred. The cerebrospinal fluid was taken, three times the amount of ethanol (containing an internal reference) was added, and stirred. The above sample was left at −20° C. for 20 minutes, centrifuged (4° C., 12,000 g, 10 minutes), the supernatant liquid was analyzed by LC/MS/MS, and the concentration in plasma, brain and cerebrospinal fluid was measured by the relative calibration curve method.

[4] = Kinetic test (plasma concentration after oral or intravenous administration); assay type: in vivo; conditions: rat, SD type male rats, fasted overnight
Experimental: The test compound (the compound of Example 1) was administered orally or intravenously to SD type male rats (7-10 weeks old, 200-400 g) which had abstained from food overnight, and about 100 μL of blood was collected from a caudal vein using a heparinized capillary tube at a predetermined time. The blood was centrifuged (4° C., 6000 rpm, 10 minutes), and plasma was obtained. Three times the amount of ethanol (containing an internal reference) was added to the plasma, stirred, left for 20 minutes at −20° C., and centrifuged (4° C., 10,000 rpm, 10 minutes). The supernatant liquid was analyzed by LC/MS/MS, and the plasma concentration was measured by the relative calibration curve method.

T1 sequence (Q9Y5N1 whole entry): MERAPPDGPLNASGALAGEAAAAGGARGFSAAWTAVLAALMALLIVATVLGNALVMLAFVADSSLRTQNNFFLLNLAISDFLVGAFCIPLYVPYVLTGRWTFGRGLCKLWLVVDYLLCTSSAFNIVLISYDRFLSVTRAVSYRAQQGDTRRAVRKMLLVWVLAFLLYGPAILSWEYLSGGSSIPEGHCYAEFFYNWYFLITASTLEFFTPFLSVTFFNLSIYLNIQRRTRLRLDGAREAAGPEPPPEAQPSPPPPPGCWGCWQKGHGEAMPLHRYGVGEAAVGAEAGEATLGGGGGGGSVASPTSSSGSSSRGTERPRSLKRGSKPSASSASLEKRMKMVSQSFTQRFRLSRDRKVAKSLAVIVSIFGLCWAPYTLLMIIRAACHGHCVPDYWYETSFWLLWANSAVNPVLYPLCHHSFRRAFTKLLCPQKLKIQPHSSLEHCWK
T2 sequence (Q9QYN8 whole entry): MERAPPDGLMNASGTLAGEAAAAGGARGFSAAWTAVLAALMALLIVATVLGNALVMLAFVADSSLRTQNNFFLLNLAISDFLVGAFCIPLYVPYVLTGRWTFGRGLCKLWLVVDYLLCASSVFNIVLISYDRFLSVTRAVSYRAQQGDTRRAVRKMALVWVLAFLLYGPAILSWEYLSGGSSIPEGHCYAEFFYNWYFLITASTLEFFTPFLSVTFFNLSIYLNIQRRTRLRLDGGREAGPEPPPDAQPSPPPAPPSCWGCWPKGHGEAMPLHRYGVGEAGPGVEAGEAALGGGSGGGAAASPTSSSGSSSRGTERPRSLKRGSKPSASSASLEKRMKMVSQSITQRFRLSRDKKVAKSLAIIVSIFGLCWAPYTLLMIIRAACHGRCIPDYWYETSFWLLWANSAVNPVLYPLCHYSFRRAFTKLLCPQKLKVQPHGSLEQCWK

| Structure (SMILES) | melting point [°C] | further results |
| --- | --- | --- |
| Cc1nc2ccc(F)cc2c(=O)n1-c1ccc(OC2CCN(C3CCC3)CC2)cc1 [Example 232, 3-{4-[(1-cyclobutylpiperidin-4-yl)oxy]phenyl}-6-fluoro-2-methyl-4(3H)-quinazolinone] | 122 to 125 | – |
| COc1ccc2nc(C)n(-c3ccc(OCCCN4CCC[C@@H]4C)cc3)c(=O)c2c1 [Example 144, 6-methoxy-2-methyl-3-(4-{3-[(2S)-2-methylpyrrolidin-1-yl]propoxy}phenyl)-4(3H)-quinazolinone] | 102 to 106 | – |
| Cc1nc2cnccc2c(=O)n1-c1ccc(OC2CCN(C3CCC3)CC2)cc1 [Example 114, 3-{4-[(1-cyclobutyl-4-piperidinyl)oxy]phenyl}-2-methylpyrido[3,4-d]pyrimidin-4(3H)-one] | 169 to 171 | – |
| Cc1nc2cc(F)ccc2c(=O)n1-c1ccc(OC2CCN(C3CCC3)CC2)cc1 [Example 233, 3-{4-[(1-cyclobutylpiperidin-4-yl)oxy]phenyl}-7-fluoro-2-methyl-4(3H)-quinazolinone] | 163 to 166 | – |
| COc1cccc2nc(C)n(-c3ccc(OCCCN4CCC[C@H](C)C4)cc3)c(=O)c12 [Example 164, 5-methoxy-2-methyl-3-(4-{3-[(3S)-3-methylpiperidin-1-yl]propoxy}phenyl)-4(3H)-quinazolinone] | 144 to 146 | – |
| CCc1nc2ccccc2c(=O)n1-c1ccc(OCCCN2CCCCC2)cc1 [Example 1, 2-ethyl-3-{4-[3-(1-piperidinyl)propoxy]phenyl}-4(3H)-quinazolinone] | – | IC50 ([1]; [3H]N-α-methylhistamine, preparation from histamine H3 receptor expression cells, 50 mM Tris pH 7.4, 25° C., 2 hours, read-out: 50% inhibition concentration (IC50 value) with respect to specific N-α-methylhistamine linkages): 15 nM; binding of N-α-methylhistamine to the histamine H3 receptor ([1]; summary in words of the binding test): strongly prevented binding; increase in drinking water amount due to R-α-methylhistamine administered to the ventriculus tertius [2]: significantly suppressed; intracerebral concentration [3]: 3.16 nmol/g; concentration at 2 h ([3]; cerebrospinal fluid, read-out: cerebrospinal fluid concentration): 142 nM; concentration at 2 h ([3]; plasma, read-out: plasma concentration): 2320 nM; bioavailability [4]: 60%; half-life ([4]; read-out: half-life in blood (converted)): 6.3 h |
| COc1ccc2nc(C)n(-c3ccc(OCCCN4CCC[C@H]4C)cc3)c(=O)c2c1 [Example 172, 6-methoxy-2-methyl-3-(4-{3-[(2R)-2-methylpyrrolidin-1-yl]propoxy}phenyl)-4(3H)-quinazolinone] | 106 to 108 | – |
| COc1cc2c(=O)n(-c3ccc(OCCCN4CCCCC4)cc3)c(C)nc2cn1 [Example 199, 6-methoxy-2-methyl-3-[4-(3-piperidin-1-ylpropoxy)phenyl]pyrido[3,4-d]pyrimidin-4(3H)-one] | 145 to 147 | – |
| Cc1nc2cnc(F)cc2c(=O)n1-c1ccc(OC2CCN(C3CCC3)CC2)cc1 [Example 230, 3-{4-[(1-cyclobutyl-piperidin-4-yl)oxy]phenyl}-6-fluoro-2-methylpyrido[3,4-d]pyrimidin-4(3H)-one] | 161 to 163 | – |
| CCc1nc2ncccc2c(=O)n1-c1ccc(OCCCN2CCC[C@H](C)C2)cc1.Cl | 245 to 252 | – |

Now from value to molecule, other results behind:

| melting point [°C] | Structure (SMILES) | further results |
| --- | --- | --- |
| 177 to 179 | Cc1nc2c(F)cccc2c(=O)n1-c1ccc(OC2CCN(C3CCC3)CC2)cc1 [Example 242, 3-{4-[(1-cyclobutylpiperidin-4-yl)oxy]phenyl}-8-fluoro-2-methyl-4(3H)-quinazolinone] | – |
| 123 to 126 | COc1cc2c(=O)n(-c3ccc(OCCCN4CCCC4)cc3)c(C)nc2cn1 [Example 200, 6-methoxy-2-methyl-3-[4-(3-pyrrolidin-1-ylpropoxy)phenyl]pyrido[3,4-d]-pyrimidin-4(3H)-one] | – |
| 141 to 145 | Cc1nc2cccc(F)c2c(=O)n1-c1ccc(OCCCN2CCCCC2)cc1 [Example 26, 5-fluoro-2-methyl-3-{4-[3-(1-piperidinyl)propoxy]phenyl}-4(3H)-quinazolinone] | – |
| 186 to 189 | CCc1nc2ccncc2c(=O)n1-c1ccc(OC2CCN(C3CCC3)CC2)cc1 [Example 109, 3-{4-[(1-cyclobutyl-4-piperidinyl)oxy]phenyl}-2-ethylpyrido[4,3-d]pyrimidin-4(3H)-one] | – |
| 171 to 173 | COc1ccc2nc(C)n(-c3ccc(OC4CCN(C5CCC5)CC4)cc3)c(=O)c2c1 [Example 228, 3-{4-[(1-cyclobutylpiperidin-4-yl)oxy]phenyl}-6-methoxy-2-methyl-4(3H)-quinazolinone] | – |
| 255 to 262 | Cc1nc2ncccc2c(=O)n1-c1ccc(OCCCN2CCC[C@H](C)C2)cc1.Cl | – |
| 140 to 143 | Cc1nc2ccncc2c(=O)n1-c1ccc(OC2CCN(C3CCCC3)CC2)cc1 [Example 101, 3-{4-[(1-cyclopentyl-4-piperidinyl)oxy]phenyl}-2-methylpyrido[4,3-d]pyrimidin-4(3H)-one] | – |
| 146 to 148 | CCc1nc2ncccc2c(=O)n1-c1ccc(OC2CCN(C3CCC3)CC2)cc1 [Example 111, 3-{4-[(1-cyclobutyl-4-piperidinyl)oxy]phenyl}-2-ethylpyrido[2,3-d]pyrimidin-4(3H)-one] | – |
| 125 to 127 | Cc1nc2cccc(F)c2c(=O)n1-c1ccc(OCCCN2CCC[C@H]2C)cc1 [Example 260, 5-fluoro-2-methyl-3-(4-{3-[(2R)-2-methylpyrrolidin-1-yl]propoxy}phenyl)-4(3H)-quinazolinone] | – |
| 238 to 250 | Cc1nc2ccncc2c(=O)n1-c1ccc(OCCCN2CCC[C@H]2C)cc1 [Example 266, 2-methyl-3-(4-{3-[(2R)-2-methylpyrrolidin-1-yl]propoxy}phenyl)pyrido[4,3-d]pyrimidin-4(3H)-one] | – |
| 136 to 138 | COc1ccc2nc(C)n(-c3ccc(OCCCN4CCCCC4)cc3)c(=O)c2c1 [Example 36, 6-methoxy-2-methyl-3-{4-[3-(1-piperidinyl)propoxy]phenyl}-4(3H)-quinazolinone] | – |
| 94 to 96 | COc1ccc2c(=O)n(-c3ccc(OCCCN4CCC[C@H](C)C4)cc3)c(C)nc2c1 [Example 170, 7-methoxy-2-methyl-3-(4-{3-[(3S)-3-methyl-piperidin-1-yl]propoxy}phenyl)-4(3H)-quinazolinone] | – |
